{"source": "patent US20240197666A1", "about": "“DITERPENOID COMPOUNDS THAT ACT ON PROTEIN KINASE C (PKC)” (K-Gen Therapeutics, Inc., priority 2021, published 2024)", "key": {"Namalwa (Lymphoma)": {"test_system": "Namalwa (Lymphoma)", "assay": "Proliferation of Namalwa", "format": "cell-based", "settings": "for IC50: read-out: IC50 Namalwa (Lymphoma)", "protocol": "(§1) The diterpenoid compounds were tested in A549, a non-small cell lung cancer cell line harboring a K-Ras activating mutation. Briefly, A549 cells at a density of 1,000 cells/well were seeded in 96-well plates and incubated at 37° C. for 24 hours. A series of different concentrations of compound stocks (500×) were prepared by 3-fold serial dilution in DMSO. These compounds were further diluted in culture media and then added to cells so that the final DMSO concentration was not exceeding 0.25%. After 96 hours of incubation, 50 μL of CellTiter Glo reagent (Promega) was added to each well and luminescence was measured after 10 minutes using EnVision (PerkinElmer). Luminescence from cells treated with DMSO alone was set as Max and % of inhibition was calculated as follows: Inhibition %=(Max-Sample value)/Max×100. Data was analyzed using XL-fit software (ID Business Solutions Ltd.) and IC50, relative IC50, and % of top inhibition was calculated. Some of the compounds in this disclosure were very potent in blocking proliferation of A549 lung cancer cells at low nM range. In addition, potency of inhibiting A549 proliferation correlated well with its binding affinity to PKCs for this series of compounds. In other words, higher affinity binders had stronger inhibitory effects on A549 proliferation. This further support the notion that activation, rather than inhibition, of certain PKC isoforms is required to block proliferation of cancer cells, some of which may harbor K-Ras mutations. This is in sharp contrast to previous literature and common belief that inhibition of PKC is necessary to block cancer cell growth (Kang, 2014, New Journal of Science, 2014:1-36). Data presented here is in agreement with recent findings that many loss-of-function but not gain-of-function mutations of PKC isoforms have been identified in many human cancers (Antal et al., 2015, Cell, 160:489-502).\n(§2) The compounds in this disclosure were tested for their potency in blocking proliferation of a few other cancer cells lines, including K-Ras mutant pancreatic cell lines Panc2.13 and KP-4, leukemia cell line HL-60, and lymphoma cell lines Namalwa and Mino. Similar procedures as in Example 67 were followed. Initial cell numbers seeded in 96-well plates were different for different cell lines: 3000 cells/well for Panc2.13; 800-1000 cells/well for KP-4; 5000 cells/well for HL-60; 5000-10000 cells/well for Namalwa and Mino. A ratio of (IC50 of K101)/(IC50 of compound) (data in parenthesis in Table 5) was used to normalize the compound potency from different assay batches to a common comparator K101."}, "[1]": {"test_system": "NFκB-driven transcription in HeLa-NFκB luciferase reporter cell line", "assay": "NFκB luciferase reporter assay", "settings": "Homo sapiens, HeLa, 16 h, read-out: NFκB-luc HeLa cells EC50 (μM)", "method": "A HeLa-NFκB luciferase reporter cell line (Wuxi Biology) was used to assess a group of PKC activator compounds for their ability to activate NFκB-driven transcription. […] One set of cells was assayed for luciferase activity (Promega, Cat #E1500) and the other set was assayed to determine the number of viable cells (for cell number normalization) using CellTiter-Glo (CTG) kit (Promega, Cat #G7570) according to manufacture's procedures. Normalized data (luciferase value/CTG value) were analyzed using GraphPad Prism5 to calculate EC50 for each compound (see Table 8).\nTo assess if activation of PKC is required for these compounds to activate NFκB, several PKC inhibitors including broad-spectrum and conventional PKC inhibitors were tested. In the assay described above, PKC inhibitors were added at the same time as the PKC activator compounds."}, "Mino (Lymphoma)": {"test_system": "Mino (Lymphoma)", "assay": "Proliferation of Mino", "format": "cell-based", "settings": "for IC50: Homo sapiens, MINO, read-out: IC50 Mino (Lymphoma)", "protocol": "as §1, §2"}, "A549 cell line": {"test_system": "A549 cell line", "assay": "Proliferation of A549 (CellTiter Glo)", "format": "cell-based", "settings": "read-out: IC50 μM (A549 Cell Line)", "protocol": "as §1"}, "HL-60 (Leukemia)": {"test_system": "HL-60 (Leukemia)", "assay": "Proliferation of HL-60", "format": "cell-based", "settings": "for IC50: Homo sapiens, HL-60, read-out: IC50 HL-60 (Leukemia)", "protocol": "as §1, §2"}, "C1b domain of human PKCδ": {"molecular_target": "T1, C1b domain of human PKCδ (Homo sapiens, UniProt Q05655)", "T1 construct": "Genes encoding C1b domains of human PKCα, δ, ε, θ, and PKD1 (PKCμ) were synthesized; made in house; host or cells: E. coli BL21(DE3)", "T1 sequence (Q05655 230-280 limits assumed)": "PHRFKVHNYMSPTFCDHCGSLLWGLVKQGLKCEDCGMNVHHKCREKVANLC", "assay": "biochemical", "format": "binding", "settings": "3H-PDBu competition", "protocol": "Compounds described in this disclosure were tested for binding affinity to C1b domain of PKC isoforms. Compound binding affinity to C1b domain of PKC isoforms was derived from competitive binding assay using radioactive tracer ^3H-PDBu and recombinant GST-C1b or full-length of human PKC proteins based on modified procedures from Methods in Molecular Biology, vol.\nGenes encoding C1b domains of human PKCα, δ, ε, θ, and PKD1 (PKCμ) were synthesized and inserted into pGEX-2TK or pGEX-4T1 vectors for expression and production of GST-C1b proteins in E. coli BL21(DE3) via IPTG induction. The target proteins were purified by glutathione sepharose 4B and followed by ion exchange chromatography if needed to achieve purity >70%. Aliquots of the purified proteins were stored at −80 degree for binding assay (storage buffer: 20 mM Tris pH 8.0, 200 mM NaCl, 10% glycerol, 1 mM DTT).\nThe plate was incubated at 37° C. on a shaker at 300 rpm for 10 minutes and then put on ice for 20 minutes. […] The bottom of the filter plate was sealed and 50 μL of MicroScint-20 (PerkinElmer) cocktail was added to each well. ^3H-PDBu trapped in each well was counted using PerkinElmer MicroBeta2 Reader. Data were analyzed using GraphPad Prism5 with the model “log(inhibitor) vs. response-variable slope” to fit the IC50, and then IC50 was transformed to Ki using Cheng-Prusoff equation: Ki=IC50/(1+added radio ligand/Kd). Kd is the binding affinity of each protein preparation to ^3H-PDBu, determined experimentally."}}, "note": "Like-named read-outs stand apart in the source and are kept apart here."}
{"smiles": "CC1=C[C@H]2[C@@]3(O)[C@H](C)C[C@]4(OC(=O)CCc5ccc(C(F)(F)F)cc5)[C@H]([C@@H]3C=C(CO)C[C@]2(O)C1=O)C4(C)C", "values": [{"measurement": "ratio (IC50 of K101)/(IC50 of compound) Namalwa", "setting": "Namalwa (Lymphoma)", "result": 13.8}, {"measurement": "IC50", "setting": "Namalwa (Lymphoma)", "result": "1 to 10", "unit": "nM"}, {"measurement": "EC50", "setting": "[1]", "result": "0.01 to 0.03", "unit": "µM"}, {"measurement": "ratio (IC50 of K101)/(IC50 of compound) Mino", "setting": "Mino (Lymphoma)", "result": 75}, {"measurement": "IC50", "setting": "Mino (Lymphoma)", "result": "< 1", "unit": "nM"}, {"measurement": "IC50", "setting": "A549 cell line; Homo sapiens, A549, 96 h", "result": "0.01 to 0.03", "unit": "µM"}, {"measurement": "ratio (IC50 of K101)/(IC50 of compound) HL-60", "setting": "HL-60 (Leukemia)", "result": 72}, {"measurement": "IC50", "setting": "HL-60 (Leukemia)", "result": "1 to 10", "unit": "nM"}]}
{"smiles": "CC1=C[C@H]2[C@@]3(O)[C@H](C)C[C@]4(OC(=O)C5CC6(CNC6)C5)[C@H]([C@@H]3C=C(CO)C[C@]2(O)C1=O)C4(C)C", "values": [{"measurement": "IC50", "setting": "A549 cell line; Homo sapiens, A549, 96 h", "result": "> 30", "unit": "µM"}]}
{"smiles": "CCCC[C@H](N)C(=O)O[C@@]12C[C@@H](C)[C@@]3(O)[C@@H](C=C(CO)C[C@]4(O)C(=O)C(C)=C[C@@H]34)[C@@H]1C2(C)C", "values": [{"measurement": "Ki", "setting": "C1b domain of human PKCδ", "result": "10 to 30", "unit": "nM"}, {"measurement": "IC50", "setting": "A549 cell line; Homo sapiens, A549, 96 h", "result": "0.6 to 1", "unit": "µM"}]}
{"smiles": "CC1=C[C@H]2[C@@]3(O)[C@H](C)C[C@]4(OC(=O)CCc5c[nH]c6ncccc56)[C@H]([C@@H]3C=C(CO)C[C@]2(O)C1=O)C4(C)C", "values": [{"measurement": "IC50", "setting": "A549 cell line; Homo sapiens, A549, 96 h", "result": "2 to 5", "unit": "µM"}]}
{"smiles": "CC1=C[C@H]2[C@@]3(O)[C@H](C)C[C@]4(OC(=O)CCc5cnn(C)c5)[C@H]([C@@H]3C=C(CO)C[C@]2(O)C1=O)C4(C)C", "values": [{"measurement": "IC50", "setting": "A549 cell line; Homo sapiens, A549, 96 h", "result": "2 to 5", "unit": "µM"}]}
{"smiles": "CC1=C[C@H]2[C@@]3(O)[C@H](C)C[C@]4(OC(=O)CCCc5ccccc5)[C@H]([C@@H]3C=C(CO)C[C@]2(O)C1=O)C4(C)C", "values": [{"measurement": "ratio (IC50 of K101)/(IC50 of compound) Namalwa", "setting": "Namalwa (Lymphoma)", "result": 8.63}, {"measurement": "IC50", "setting": "Namalwa (Lymphoma)", "result": "1 to 10", "unit": "nM"}, {"measurement": "EC50", "setting": "[1]", "result": "0.01 to 0.03", "unit": "µM"}, {"measurement": "ratio (IC50 of K101)/(IC50 of compound) Mino", "setting": "Mino (Lymphoma)", "result": 37.5}, {"measurement": "IC50", "setting": "Mino (Lymphoma)", "result": "1 to 10", "unit": "nM"}, {"measurement": "IC50", "setting": "A549 cell line; Homo sapiens, A549, 96 h", "result": "0.01 to 0.03", "unit": "µM"}, {"measurement": "ratio (IC50 of K101)/(IC50 of compound) HL-60", "setting": "HL-60 (Leukemia)", "result": 32.7}, {"measurement": "IC50", "setting": "HL-60 (Leukemia)", "result": "10 to 30", "unit": "nM"}]}
{"smiles": "CC1=C[C@H]2[C@@]3(O)[C@H](C)C[C@]4(OC(=O)[C@@H](N)CC5CCC5)[C@H]([C@@H]3C=C(CO)C[C@]2(O)C1=O)C4(C)C", "values": [{"measurement": "IC50", "setting": "A549 cell line; Homo sapiens, A549, 96 h", "result": "1 to 2", "unit": "µM"}]}
{"smiles": "CC1=C[C@H]2[C@@]3(O)[C@H](C)C[C@]4(OC(=O)[C@@H](N)CCS(C)(=O)=O)[C@H]([C@@H]3C=C(CO)C[C@]2(O)C1=O)C4(C)C", "values": [{"measurement": "IC50", "setting": "A549 cell line; Homo sapiens, A549, 96 h", "result": "> 30", "unit": "µM"}]}
{"smiles": "CC1=C[C@H]2[C@@]3(O)[C@H](C)C[C@]4(OC(=O)[C@@H](N)CC(C)(C)C)[C@H]([C@@H]3C=C(CO)C[C@]2(O)C1=O)C4(C)C", "values": [{"measurement": "Ki", "setting": "C1b domain of human PKCδ", "result": "10 to 30", "unit": "nM"}, {"measurement": "IC50", "setting": "A549 cell line; Homo sapiens, A549, 96 h", "result": "0.2 to 0.6", "unit": "µM"}]}
{"smiles": "CC1=C[C@H]2[C@@]3(O)[C@H](C)C[C@]4(OC(=O)[C@@H](N)C5Cc6ccccc6C5)[C@H]([C@@H]3C=C(CCl)C[C@]2(O)C1=O)C4(C)C", "values": [{"measurement": "IC50", "setting": "A549 cell line; 96 hours, CellTiter Glo", "result": "0.06 to 0.1", "unit": "µM"}]}
{"smiles": "CC1=C[C@H]2[C@@]3(O)[C@H](C)C[C@]4(OC(=O)[C@@H](N)CC5CC5)[C@H]([C@@H]3C=C(CO)C[C@]2(O)C1=O)C4(C)C", "values": [{"measurement": "Ki", "setting": "C1b domain of human PKCδ", "result": "60 to 100", "unit": "nM"}, {"measurement": "IC50", "setting": "A549 cell line; Homo sapiens, A549, 96 h", "result": "2 to 5", "unit": "µM"}]}
{"smiles": "CC1=C[C@H]2[C@@]3(O)[C@H](C)C[C@]4(OC(=O)[C@@H](N)CC5CCCC5)[C@H]([C@@H]3C=C(CO)C[C@]2(O)C1=O)C4(C)C", "values": [{"measurement": "IC50", "setting": "A549 cell line; Homo sapiens, A549, 96 h", "result": "0.1 to 0.2", "unit": "µM"}]}
{"smiles": "CC1=C[C@H]2[C@@]3(O)[C@H](C)C[C@]4(OC(=O)CCCCCCCCCCC(=O)O)[C@H]([C@@H]3C=C(CO)C[C@]2(O)C1=O)C4(C)C", "values": [{"measurement": "IC50", "setting": "A549 cell line; Homo sapiens, A549, 96 h", "result": "10 to 30", "unit": "µM"}]}
{"smiles": "CC1=C[C@H]2[C@@]3(O)[C@H](C)C[C@]4(OC(=O)[C@H](N)CC5CCCCC5)[C@H]([C@@H]3C=C(CO)C[C@]2(O)C1=O)C4(C)C", "values": [{"measurement": "Ki", "setting": "C1b domain of human PKCδ", "result": "10 to 30", "unit": "nM"}, {"measurement": "IC50", "setting": "A549 cell line; Homo sapiens, A549, 96 h", "result": "0.2 to 0.6", "unit": "µM"}]}
